What was measured:
[1] = target: Sodium-dependent dopamine transporter (Rattus norvegicus, UniProt P23977)
[2] = target: Sodium-dependent serotonin transporter (Rattus norvegicus, UniProt P31652)
Sequence of Sodium-dependent serotonin transporter (P31652 whole entry): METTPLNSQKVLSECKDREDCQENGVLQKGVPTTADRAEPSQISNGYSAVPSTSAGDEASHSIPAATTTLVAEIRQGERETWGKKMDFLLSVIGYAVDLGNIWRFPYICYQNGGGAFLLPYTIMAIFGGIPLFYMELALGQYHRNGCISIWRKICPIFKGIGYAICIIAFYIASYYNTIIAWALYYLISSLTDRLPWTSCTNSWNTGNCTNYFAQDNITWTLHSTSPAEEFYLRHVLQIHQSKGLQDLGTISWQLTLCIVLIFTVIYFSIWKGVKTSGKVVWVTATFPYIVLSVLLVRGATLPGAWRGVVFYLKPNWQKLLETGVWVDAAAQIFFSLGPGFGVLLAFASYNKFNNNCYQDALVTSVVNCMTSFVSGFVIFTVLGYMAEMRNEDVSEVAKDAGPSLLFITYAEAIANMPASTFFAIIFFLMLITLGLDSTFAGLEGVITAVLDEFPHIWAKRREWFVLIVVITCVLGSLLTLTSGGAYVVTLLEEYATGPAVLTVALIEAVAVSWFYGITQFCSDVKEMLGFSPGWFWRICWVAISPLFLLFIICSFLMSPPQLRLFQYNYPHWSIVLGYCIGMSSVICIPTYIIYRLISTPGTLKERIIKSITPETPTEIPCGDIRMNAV

Sequence of Sodium-dependent dopamine transporter (P23977 whole entry): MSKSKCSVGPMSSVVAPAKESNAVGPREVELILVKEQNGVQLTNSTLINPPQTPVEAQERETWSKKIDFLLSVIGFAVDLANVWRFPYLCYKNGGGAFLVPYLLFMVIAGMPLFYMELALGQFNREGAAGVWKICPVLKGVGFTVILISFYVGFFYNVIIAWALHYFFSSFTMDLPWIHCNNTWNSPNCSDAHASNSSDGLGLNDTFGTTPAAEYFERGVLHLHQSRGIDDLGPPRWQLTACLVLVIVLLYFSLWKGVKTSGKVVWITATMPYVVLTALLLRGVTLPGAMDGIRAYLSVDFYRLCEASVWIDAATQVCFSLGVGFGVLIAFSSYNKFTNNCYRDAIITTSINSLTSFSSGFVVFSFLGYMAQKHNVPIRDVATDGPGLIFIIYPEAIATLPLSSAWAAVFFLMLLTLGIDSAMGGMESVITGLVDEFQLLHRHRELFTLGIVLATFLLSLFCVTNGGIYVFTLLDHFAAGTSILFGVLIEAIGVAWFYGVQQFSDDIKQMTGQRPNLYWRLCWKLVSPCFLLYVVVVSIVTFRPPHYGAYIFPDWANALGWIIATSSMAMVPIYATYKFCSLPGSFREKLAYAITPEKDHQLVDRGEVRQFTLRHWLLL

COC(=O)[C@H](c1ccc(Cl)c(Cl)c1)[C@@H]1CCCCN1 [3,4CTMP]
Ki [1]: 0.0053 µM

COC(=O)[C@H](c1cccc(Cl)c1)[C@@H]1CCCCN1C [3CTMPNMe]
Ki [2]: > 10 µM | Ki [1]: 0.16 µM

COC(=O)[C@H](c1cccc(Cl)c1)[C@@H]1CCCCN1 [3CTMP]
Ki [2]: > 10 µM | Ki [1]: 0.0051 µM

COC(=O)[C@H](c1ccc(N)cc1)[C@@H]1CCCCN1 [4ATMP]
Ki [2]: > 10 µM | Ki [1]: 0.0345 µM

COC(=O)[C@H](c1ccc(F)cc1)[C@@H]1CCCCN1 [4FTMP]
Ki [2]: > 10 µM | Ki [1]: 0.035 µM

COC(=O)[C@H](c1ccc(C)cc1)[C@@H]1CCCCN1C [4MeTMPNMe]
Ki [2]: 1.11 µM | Ki [1]: 0.14 µM

COC(=O)[C@H](c1ccc(C)cc1)[C@@H]1CCCCN1 [4MeTMP]
Ki [2]: > 10 µM | Ki [1]: 0.033 µM

COC(=O)[C@H](c1ccccc1)[C@@H]1CCCCN1C [TMPNMe]
Ki [2]: > 10 µM | Ki [1]: 0.499 µM

COC(=O)[C@H](c1ccccc1)[C@@H]1CCCCN1 [TMP]
Ki [2]: > 10 µM

CCCCN1CCCC[C@H]1[C@H](CO)c1ccccc1 [TROHNBn]
Ki [2]: 0.204 µM | Ki [1]: 0.0237 µM

CCCCN1CCCC[C@H]1[C@H](COC)c1ccccc1 [TROMeNBn]
Ki [2]: 0.166 µM | Ki [1]: 0.0178 µM

Source: BindingDB's records for doi:10.1124/jpet.301.2.527 (Mercer University, 2002)
